From patent publication US11779628B2, “Use of cell-permeable peptide inhibitors of the JNK signal transduction pathway for the treatment of various diseases” (Xigen Inflammation Ltd., priority 2014, dated 2023)
Like-named read-outs stand apart in the source and are kept apart here.

Test system: Sprague-Dawley albino rats, light-induced photoreceptor cell death
Assay type: in vivo
Conditions: Day 23
Description: The aim of this study was to investigate the dose effect of XG-102 on light-induced photoreceptor cell death.
50 male Rat (Sprague-Dawley (albinos rat); approximately 8 weeks; 200-250 g (on ordering)) have been used. Rats are most commonly used in this experimental model. Animals were examined before study, and particular attention was paid to the eyes. Animals were held in observation for 2 weeks following their arrival. Animals were observed daily for signs of illness. Only healthy animals with no ocular abnormalities were accepted for use in experiments. Animals were housed individually in standard cages (420×270×190 mm)^ii. All animals were housed under identical environmental conditions. The temperature was held at 22±2° C. and the relative humidity at 55±10%. Rooms were continuously ventilated (15 times per hour). A cycle of 12 hours light (200-300 lx) and 12 hours darkness was automatically controlled. These parameters were continuously controlled and recorded. Throughout the study, animals had free access to food and water. They were fed a standard dry pellet diet. Tap water was available ad libitum from plastic bottles.
Forty-eight (48) rats were randomly divided into six (6) groups of eight (8) animals each. Test item (XG-102: 30 mg/ml, 3 mg/ml, and 0.3 mg/ml) and vehicle (0.9% NaCl) were administered by intravitreal injection in right eyes the day before induction. The reference (Phenyl-N-test-Butylnitrone (PBN) (50 mg/kg)) and vehicle were intraperitoneally injected 30 min before induction then, 3 times during 12 hours of light exposition, then once after induction. Animals were placed in constant light (7000 lux) for 24 h. Electroretinograms (ERG) were recorded before light treatment and on days 9, 16 and 23 after induction. Eyes were then taken for histology and outer nuclear layer (ONL) thickness assessment. The table below summarizes the allocation of animals in treatment groups:
For the intravitreal injection animals were anesthetized by intramuscular injection of a mixture of xylazine/ketamine. Test item (5 μl) and vehicle (5 μl) were injected in the right eye. The injection was performed under an operating microscope in the supratemporal area at pars plana using a 33G-needle mounted on a 50 μl Hamilton. The filled syringe was mounted into the UltraMicroPump III to achieve accurate injection in microliter range. Reference and vehicle were injected intraperitoneally at a dose volume of 2.5 ml/kg using a 30G-needle mounted on a 1 ml-syringe.
Light Exposure: The rats that had been dark-adapted overnight were exposed for 24 hours to a continuous white fluorescent light (7000 Ix) in clear plastic cages. Each cage contained one rat. After exposure, the rats returned to rearing cyclic light conditions.
ERG was recorded before induction and 7, 14 and 21 days after cessation of exposure (Days 9, 16 and 23) on right eyes of dark-adapted and anesthetized animals. The latency times (for a- and b-wave) and the a-wave and b-wave amplitudes were measured for each ERG; the latency times were expressed as millisecond and the a-wave and b-wave as a percentage of the baseline value obtained before light exposure. 15 min before measurement 10 μl Mydriaticum® (0.5% tropicamide) were instilled for pupillary dilatation.
ERG Parameters: • Color: white maximum. • Maximum intensity: 2.6 cd·s/m^2 (0 dB); Duration 0.24 ms; number of flash: 1. • Filter: 50 Hz. • Impedence Threshold: 90 kΩ.
Measurement of the ONL Thickness: After ERG testing, animal was euthanized by an overdose of pentobarbital and the right eyes were enucleated, fixed and embedded in paraffin. Sections (5 μm thick) were performed along the vertical meridian and stained with Trichrome-Masson. The vertical meridian included the optic nerve.
Group mean values and standard deviation were calculated. A statistical Mann and Whitney test was used to evaluate the differences between pair-wise groups. For comparison between time-point into each vehicle groups, a Friedman test was used. […]

CC(C)C[C@@H](NC(=O)[C@@H](Cc1ccccc1)NC(=O)[C@H]1CCCN1C(=O)[C@@H](CCC(N)=O)NC(=O)[C@H](NC(=O)[C@H]1CCCN1C(=O)[C@@H](CCCNC(=N)N)NC(=O)[C@@H](CO)NC(=O)[C@@H](CCC(N)=O)NC(=O)[C@H](N)CC(=O)O)C(C)C)C(=O)N[C@H](CC(N)=O)C(=O)N[C@H](CC(C)C)C(=O)N[C@@H](C(=O)N[C@@H](C(=O)N1CCC[C@@H]1C(=O)N[C@H](CCCNC(=N)N)C(=O)N[C@H](CCCCN)C(=O)N1CCC[C@@H]1C(=O)N[C@H](CCCNC(=N)N)C(=O)N1CCC[C@@H]1C(=O)N1CCC[C@@H]1C(=O)N[C@H](CCCNC(=N)N)C(=O)N[C@H](CCCNC(=N)N)C(=O)N[C@H](CCCNC(=N)N)C(=O)N[C@H](CCC(N)=O)C(=O)N[C@H](CCCNC(=N)N)C(=O)N[C@H](CCCNC(=N)N)C(=O)N[C@H](CCCCN)C(=O)N[C@H](CCCCN)C(=O)N[C@H](CCCNC(=N)N)C(=O)NCC(=O)O)[C@H](C)O)[C@H](C)O [XG-102]
protection of ONL thickness (high dose XG-102): No protection was observed with high dose XG-102
recovery of the a-wave (% of baseline) (low dose 1.5 μg/eye): 48.3%
loss of the mean ONL thickness (low dose XG-102): 40%
loss of the mean ONL thickness (mid dose XG-102): 40%
